The text below walks through data of patent US20090203605A1, “Methods For Treating A Condition Characterized By Dysfunction In Protein Homeostasis” (THE SCRIPPS RESEARCH INSTITUTE, priority 2008, published 2009).

pIC50: −log10 of the molar value. Some results are limits rather than exact numbers.

For one experiment, the target named is T1, G269S/1278insTATC HexA (Homo sapiens, UniProt P06865, G269S).
T1 construct: host or cells: Tay-Sachs patient fibroblasts, lysed for the MUGS assay
T1 sequence (P06865 89-529 G269S): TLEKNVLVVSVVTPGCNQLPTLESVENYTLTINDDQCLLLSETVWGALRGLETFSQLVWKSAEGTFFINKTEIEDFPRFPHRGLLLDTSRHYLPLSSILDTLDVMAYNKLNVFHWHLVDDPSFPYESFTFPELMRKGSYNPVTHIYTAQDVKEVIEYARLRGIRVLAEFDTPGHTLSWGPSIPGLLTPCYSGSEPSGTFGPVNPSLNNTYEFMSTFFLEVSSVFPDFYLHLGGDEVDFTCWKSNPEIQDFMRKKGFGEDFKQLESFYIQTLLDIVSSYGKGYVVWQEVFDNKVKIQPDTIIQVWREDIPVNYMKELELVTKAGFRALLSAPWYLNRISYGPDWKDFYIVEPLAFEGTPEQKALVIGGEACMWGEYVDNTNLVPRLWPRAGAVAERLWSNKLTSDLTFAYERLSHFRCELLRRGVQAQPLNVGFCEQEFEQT
T1 sequence (P07686 122-556 partner): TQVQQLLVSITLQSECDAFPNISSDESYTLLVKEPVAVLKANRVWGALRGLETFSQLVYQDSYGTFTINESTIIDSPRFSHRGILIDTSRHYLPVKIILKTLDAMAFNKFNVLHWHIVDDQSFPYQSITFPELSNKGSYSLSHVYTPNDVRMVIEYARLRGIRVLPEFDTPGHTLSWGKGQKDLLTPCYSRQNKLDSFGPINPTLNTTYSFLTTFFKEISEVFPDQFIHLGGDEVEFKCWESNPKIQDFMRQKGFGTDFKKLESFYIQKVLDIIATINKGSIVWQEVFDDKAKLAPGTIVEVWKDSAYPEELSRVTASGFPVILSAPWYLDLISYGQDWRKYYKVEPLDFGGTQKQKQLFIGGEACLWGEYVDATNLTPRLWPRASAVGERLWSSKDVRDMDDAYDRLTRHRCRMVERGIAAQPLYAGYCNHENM
In words: Hex α-site cell assay in Tay-Sachs fibroblast cell line. The class given is cell-based. Particulars: ADNJ 20 to 50 μM, exposed once without media changes, after 192 h. The text has this: We therefore evaluated the ability of these proteostasis regulators to restore partial function to HexA, a heterodimeric enzyme composed of α- and β-subunits that degrades GM2 gangliosides in the lysosome. Mutations in the β-hexosaminidase A α-subunit can cause extensive ERAD of HexA, leading to Tay-Sachs disease (TSD). Jeyakumar et al., Neuropathol Appl Neurobiol 28: 343-357, 2002. HexA activity was studied in a compound heterozygous fibroblast cell line (GM13204), harboring one of the most prevalent β-hexosaminidase A α-subunit mutations (G269S) found in Tay-Sachs patients and a second mutated HexA allele (1278insTATC) with a stop codon. […] Tropak et al., J Biol Chem 279: 13478-13487, 2004.
The Hex α-site cell assay has been previously described. Tropak et al., J Biol Chem 279: 13478-13487, 2004. Cells were plated as described for the GC assay. After 1 to 8 days of incubation the medium was removed, cells were washed with PBS, and lysed with 60 μl of 10 mM citrate/phosphate buffer pH 4.2 (CP buffer) containing 0.5% human serum albumin and 0.5% Triton X-100. 30 μl of aliquots were transferred to a 96-well plate and Hex α-site activity was measured by adding 30 μl of 3.2 mM MUGS in CP buffer to each well and incubating the plates at 37° C. for 1 to 7 hour. The reaction was stopped by adding 200 μl of 0.1 M 2-amino-2-methyl-1-propanol pH 10.5 and the fluorescence was measured (excitation 365 nm, emission 450 nm).

The target in a further experiment is T2, L444P GC (Homo sapiens, UniProt P04062, L483P).
T2 construct: a L444P GC Gaucher fibroblast cell line (GM08760); host or cells: Gaucher patient-derived skin fibroblasts
T2 sequence (P04062 40-536 L483P): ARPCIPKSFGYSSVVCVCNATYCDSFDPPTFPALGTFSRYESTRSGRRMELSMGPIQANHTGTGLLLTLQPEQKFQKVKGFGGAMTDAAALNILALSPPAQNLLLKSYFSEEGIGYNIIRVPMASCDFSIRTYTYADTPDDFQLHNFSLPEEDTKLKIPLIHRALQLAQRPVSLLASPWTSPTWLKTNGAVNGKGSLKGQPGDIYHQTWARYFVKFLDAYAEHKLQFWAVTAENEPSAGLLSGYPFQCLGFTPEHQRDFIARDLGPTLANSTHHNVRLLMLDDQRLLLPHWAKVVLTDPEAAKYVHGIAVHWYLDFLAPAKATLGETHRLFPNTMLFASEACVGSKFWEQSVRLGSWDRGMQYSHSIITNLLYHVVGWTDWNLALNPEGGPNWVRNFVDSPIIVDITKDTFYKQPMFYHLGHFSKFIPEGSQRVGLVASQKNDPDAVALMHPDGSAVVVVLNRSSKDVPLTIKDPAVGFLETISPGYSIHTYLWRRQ
In words: GC activity assay in L444P GC Gaucher patient-derived fibroblasts. The class given is cell-based. As to conditions: for L444P GC activity, maximum fold increase: 30 μM.

For the next experiment, the system named is Ca^2+ channel. Particulars: cited from earlier work; for pIC50: previously reported, Li et al., J Med Chem 35: 3246-3253, 1992, read-out: Ca^2+ channel blocker IC50.
[1] abbreviates: 7 days, intact cell GC activity assay (FIG. 19D).

On to `CC(=O)N[C@H]1C(O)N[C@H](CO)[C@H](O)[C@@H]1O` (stereo partly drawn) [ADNJ, 2-Acetamido-2-deoxynojirimycin], for which, at G269S/1278insTATC HexA, the “Hex α-site activity as % of cellular WT Hex α-site activity” value is listed as 25% and the “cellular Hex α-site activity, fold increase” value is recorded as 2.5 fold.
In general, pIC50 refers to −log10 of the IC50, conventionally taken in molar units. Regarding `CN(C)CCN1C(=O)[C@H](O)[C@H](c2ccc(O)cc2)Sc2ccccc21` [Compound 3, (2S,3S)-5-[2-(Dimethylamino)ethyl]-2,3-dihydro-3-hydroxy-2-(4-hydroxyphenyl)-1,5-benzothiazepin-4(5H)-one], at L444P GC (setting [1]), the “L444P GC activity, maximum fold increase” value is listed as 1.3 fold. The pIC50 with Ca^2+ channel is 4.34.
On to `CNCCN1C(=O)[C@H](O)[C@H](c2ccc(O)cc2)Sc2ccccc21` [Compound 4, (2S,3S)-2,3-Dihydro-3-hydroxy-2-(4-hydroxyphenyl)-5-[2-(methylamino)ethyl]-1,5-benzothiazepin-4(5H)-one], for which the “L444P GC activity, maximum fold increase” value at L444P GC (setting [1]) is 1.2 fold. Moreover, in the experiment on Ca^2+ channel, the pIC50 is 3.90.
For the molecule `COc1ccc([C@@H]2Sc3ccccc3NC(=O)[C@@H]2O)cc1` [Compound 6], the “effect on L444P GC activity” value at L444P GC (0.3 to 100 μM, 7 days, intact cell GC activity assay (FIG. 19D)) is listed as “do not increase L444P GC activity”. The “Ca^2+ channel antagonist activity” value with Ca^2+ channel (according to reported SAR studies, lack basic amino nitrogen pharmacophore) is recorded as “not Ca^2+ channel antagonists”.
As for `COc1ccc(S(=O)(=O)N(CCO)c2ccccc2CN(C)C/C=C/c2ccc(Cl)cc2)cc1` [KN93], the “effect on L444P GC activity” value at L444P GC (IP3R inhibitors (FIG. 33)) was “None of the compounds enhanced L444P GC activity”.
In the case of `C1CCCC2CCCN3CCC(CCCCCCC4CCCN5CCC(CC1)OC45)OC23` (stereo not drawn) [XeC], the “effect on L444P GC activity” value at L444P GC (IP3R inhibitors (FIG. 33)) is “None of the compounds enhanced L444P GC activity”.
On the same count and under the same terms, the entry for `CCN(CC)CCCC(C)Nc1ccnc2cc(Cl)ccc12` (stereo not drawn) [chloroquinine] is “None of the compounds enhanced L444P GC activity”.
On to `CC(=O)N[C@@H](CSC(=O)[C@]1([C@@H](O)C(C)C)NC(=O)[C@H](C)[C@@H]1O)C(=O)O` [lactacystin], for which the “GC proteostasis regulator function” value at L444P GC (L444P GC cells) is reported as “not a GC proteostasis regulator”.
Turning to `C=C[C@H]1C[N@@]2CC[C@H]1C[C@H]2[C@H](O)c1ccnc2ccc(OC)cc12` [quinine], the “effect on L444P GC activity” value at L444P GC (IP3R inhibitors (FIG. 33)) is “None of the compounds enhanced L444P GC activity”.
Turning to `N.N.N.N.N.N.N.N.N.N.N.N.N.N.[Cl-].[Cl-].[Cl-].[Cl-].[Cl-].[Cl-].[O-2].[O-2].[Ru+3].[Ru+3].[Ru+4]` [ruthenium red], on L444P GC (thermosensitive TRP channel modulators, 5-day incubation), the “effect on L444P GC activity, intact cell GC enzyme assay” value is on record as “notably increased”.
Consider `C/C=C(/C)C(=O)O[C@H]1C(C)=C2[C@H]([C@@H]1OC(=O)CCCCCCC)[C@@](C)(OC(C)=O)C[C@H](OC(=O)CCC)[C@@]1(O)[C@H]2OC(=O)[C@@]1(C)O` [thapsigargin], for which the “effect on L444P GC folding, trafficking and lysosomal activity” value at L444P GC (thapsigargin (FIG. 25)) is listed as “does not enhance”. In addition, on L444P GC (thapsigargin alone, 7-day incubation), the “concentration above which L444P GC activity is decreased significantly” value is listed as more than 1 nM. The “effect on GC activity in L444P GC cells” value on L444P GC (varying concentrations co-applied with 10 μM diltiazem, 7 days) was “dose-dependent decrease of GC activity”.
On to `C[CH2][Hg][S]c1ccccc1C(=O)[O-].[Na+]` [thimerosal], for which the “effect on L444P GC activity” value on L444P GC (IP3R inhibitors (FIG. 33)) was “None of the compounds enhanced L444P GC activity”.
